Experimental data published in US20210246115A1 (Bioimics AB, priority 2017, published 2021).
≈ marks a conversion by molar mass, not a printed value. Where a name gives a salt, the structure may show the parent alone.

Key:
[1] = tested on: E. coli RNase P RNA, M1 RNA; test: Inhibition of bacterial RNase P activity, IC50 determination (cleavage of pATSerUG by M1 RNA); format: biochemical; settings: NI: No inhibition
[2] = tested on: Staphylococcus aureus (ATCC25923); test: MIC, broth microdilution (CLSI), Staphylococcus aureus ATCC25923; settings: Staphylococcus aureus, ATCC25923, read-out: S. aureus ATCC 25923 MIC
[3] = tested on: Escherichia coli (ATCC25922); test: MIC, broth microdilution (CLSI), Escherichia coli; settings: Escherichia coli, ATCC25922, read-out: E. coli ATCC 25922 MIC, Table XIII

| IC50 [1] [µM] | MIC [2] [µg/mL] | MIC [3] [µg/mL] | IC50 ([1]; hydrochloride salt) [µM] | Structure (SMILES) |
| --- | --- | --- | --- | --- |
| 15 | 2 | > 512 |  | Cc1cccc(C(CC(=O)N(C)C2CCNCC2)c2cn(CC3CCCCC3)c3ccc(Br)cc23)c1.Cl (centres unmarked) [Compound 278, 3-(5-bromo-1-(cyclohexylmethyl)-1H-indol-3-yl)-N-methyl-N-(piperidin-4-yl)-3-(m-tolyl)propanamide hydrochloride salt] |
| 43 | 54 | 54 |  | Cl.N[C@H]1CC[C@H](NC(=O)CCc2cc3ccccc3n2CC2CCCCC2)CC1 [Compound 276, N-((1R,4R)-4-aminocyclohexyl)-3-(1-(cyclohexylmethyl)-1H-indol-2-yl)propanamide hydrochloride salt] |
| 41 | 64 | > 512 |  | Cc1cccc(C(CC(=O)N[C@H]2CC[C@H](N)CC2)c2cn(CC3CCCCC3)c3ccc(-c4ccccc4)cc23)c1.Cl (stereo partly drawn) [Compound 153, N-((1R,4R)-4-aminocyclohexyl)-3-(1-(cyclohexylmethyl)-5-phenyl-1H-indol-3-yl)-3-(m-tolyl)propanamide hydrochloride salt] |
|  | 5 | 5 | 5.7 | Cc1cccc(C(CC(=O)NC2CCC(N)CC2)c2cn(CC3CCCCC3)c3cc(Br)ccc23)c1 [Compound 222, N-((1S,4S)-4-aminocyclohexyl)-3-(6-bromo-1-(cyclohexylmethyl)-1H-indol-3-yl)-3-(m-tolyl)propanamide hydrochloride salt] |
| 23 | 19 | > 512 |  | Cc1cccc(C(CC(=O)N[C@H]2CC[C@H](CN)CC2)c2cn(CC3CCCCC3)c3ccc(Br)cc23)c1.Cl (stereo partly drawn) [Compound 206, N-((1R,4R)-4-(aminomethyl)cyclohexyl)-3-(5-bromo-1-(cyclohexylmethyl)-1H-indol-3-yl)-3-(m-tolyl)propanamide hydrochloride salt] |
| 7 | 9 | 289 |  | Cl.NC1CCC(NC(=O)Cc2cn(CC3CCCCC3)c3ccc(-c4ccccc4OC(F)(F)F)cc23)CC1 [Compound 234, N-((1S,4S)-4-aminocyclohexyl)-2-(1-(cyclohexylmethyl)-5-(2-(trifluoromethoxy)phenyl)-1H-indol-3-yl)acetamide hydrochloride salt] |
| 32 | 8 | 134 |  | Cc1cccc(C(CC(=O)N[C@H]2CC[C@H](N)CC2)c2cn(C(C)C3CCCCC3)c3ccccc23)c1.Cl (some centres unmarked) [Compound 299, N-((1r,4r)-4-aminocyclohexyl)-3-(1-(1-cyclohexylethyl)-1H-indol-3-yl)-3-(m-tolyl)propanamide hydrochloride salt] |
| 7.5 | 4 | 64 |  | Cc1cccc(-c2ccc3c(c2)c(CCC(=O)NC2CCC(N)CC2)cn3CC2CCCCC2)c1.Cl (centres unmarked) [Compound 144, N-((1s,4s)-4-aminocyclohexyl)-3-(1-(cyclohexylmethyl)-5-(m-tolyl)-1H-indol-3-yl)propanamide hydrochloride salt] |
| 20 | 267 | > 512 |  | Cc1cccc(-c2ccc3c(c2)c(CC(=O)NC2CCC(N)CC2)cn3C(=O)C2CCCCC2)c1.Cl [Compound 259, N-((1S,4S)-4-aminocyclohexyl)-2-(1-(cyclohexanecarbonyl)-5-(m-tolyl)-1H-indol-3-yl)acetamide hydrochloride salt] |
| 6.6 | 2 | 5 |  | NC1CCC(NCCCc2cn(CC3CCCCC3)c3ccc(-c4cccc(OC(F)(F)F)c4)cc23)CC1 [Compound 242, (1S,4S)-N1-(3-(1-(cyclohexylmethyl)-5-(3-(trifluoromethoxy)phenyl)-1H-indol-3-yl)propyl)cyclohexane-1,4-diamine hydrochloride salt] |
| 12 | 8 | 126 |  | Cc1ccccc1-c1ccc2c(c1)c(CC(=O)NC1CCC(N)CC1)cn2CC1CCCCC1.Cl [Compound 235, N-((1S,4S)-4-aminocyclohexyl)-2-(1-(cyclohexylmethyl)-5-(o-tolyl)-1H-indol-3-yl)acetamide hydrochloride salt] |
| 121 | 34 (≈ 64.2 µM) | 68 (≈ 128 µM) |  | N[C@H]1CC[C@H](NC(=O)C2CCN(Cc3cn(CC4CCCCC4)c4ccc(Br)cc34)CC2)CC1 [Compound 272, N-((1R,4R)-4-aminocyclohexyl)-1-((5-bromo-1-(cyclohexylmethyl)-1H-indol-3-yl)methyl)piperidine-4-carboxamide] |
| 298 | 240 | > 512 |  | N[C@@H](Cc1cn(CC2CCCCC2)c2ccccc12)C(=O)N[C@H]1CC[C@H](N)CC1 [Compound 264, (S)-2-amino-N-((1R,4S)-4-aminocyclohexyl)-3-(1-(cyclohexylmethyl)-1H-indol-3-yl)propanamide hydrochloride salt] |
| 5.9 | 15 | 59 |  | Cl.NC1CCC(C(=O)N2CCC(c3cn(CC4CCCCC4)c4ccccc34)CC2)CC1 (centres unmarked) [Compound 200, (4-aminocyclohexyl) (4-(1-(cyclohexylmethyl)-1H-indol-3-yl)piperidin-1-yl)methanone hydrochloride salt] |
| 316 | > 512 | > 512 |  | Cc1cccc(C(CC(=O)NC2CCNCC2)c2cn(CC3CCOCC3)c3ccccc23)c1.Cl (centres unmarked) [Compound 284, N-(piperidin-4-yl)-3-(1-((tetrahydro-2H-pyran-4-yl)methyl)-1H-indol-3-yl)-3-(m-tolyl)propanamide hydrochloride salt] |
| 164 | 66 | 133 |  | Cl.O=C(CCc1cn(CC2CCC(F)(F)CC2)c2ccc(Br)cc12)NC1CCNCC1 [Compound 286, 3-(5-bromo-1-((4,4-difluorocyclohexyl)methyl)-1H-indol-3-yl)-N-(piperidin-4-yl)propanamide hydrochloride salt] |

More lines, now with the values behind:

| Structure (SMILES) | IC50 [1] [µM] | MIC [2] [µg/mL] | MIC [3] [µg/mL] | IC50 ([1]; hydrochloride salt) [µM] |
| --- | --- | --- | --- | --- |
| COc1cc(OC)cc(C(CC(=O)N[C@H]2CC[C@H](N)CC2)c2cn(CC3CCCCC3)c3ccccc23)c1.Cl (stereo partly drawn) [Compound 127, N-((1R,4R)-4-aminocyclohexyl)-3-(1-(cyclohexylmethyl)-1H-indol-3-yl)-3-(3,5-dimethoxyphenyl) propanamide hydrochloride salt] | 19 | 512 | > 512 |  |
| Cl.N[C@H]1CC[C@H](NC(=O)CC(c2cccc(Cl)c2)c2cn(CC3CCCCC3)c3ccccc23)CC1 (some centres unmarked) [Compound 135, N-((1r,4r)-4-aminocyclohexyl)-3-(3-chlorophenyl)-3-(1-(cyclohexylmethyl)-1H-indol-3-yl)propanamide hydrochloride salt] | 8 | 4 | 256 |  |
| Cl.O=C(CC(c1cscn1)c1cn(CC2CCCCC2)c2ccccc12)NC1CCNCC1 (centres unmarked) [Compound 101, 3-(1-(cyclohexylmethyl)-1H-indol-3-yl)-N-(piperidin-4-yl)-3-(thiazol-4-yl)propanamide hydrochloride salt] | 387 | 128 | 128 |  |
| Cc1cccc(C(CC(=O)N[C@H]2CC[C@@H](N)CC2)c2cn(Cc3ccccc3)c3ncccc23)c1.Cl (some centres unmarked) [Compound 41, N-((1s,4s)-4-aminocyclohexyl)-3-(1-benzyl-1H-pyrrolo[2,3-b]pyridin-3-yl)-3-(m-tolyl)propanamide hydrochloride salt] | 980 | 258 | > 512 |  |
| Cc1cccc(C(CC(=O)NC2CCNCC2)c2cn(CC3CCCCC3)c3ccc(Br)cc23)c1.Cl (centres unmarked) [Compound 121, 3-(5-bromo-1-(cyclohexylmethyl)-1H-indol-3-yl)-N-(piperidin-4-yl)-3-(m-tolyl) propanamide hydrochloride salt] | 8 | 8 | 256 |  |
| CCOP(=O)(NC1CCC(NC(=O)CC(c2cccc(C)c2)c2cn(CC3CCCCC3)c3ccccc23)CC1)OCC (centres unmarked) [Compound 226, diethyl ((1s,4s)-4-(3-(1-(cyclohexylmethyl)-1H-indol-3-yl)-3-(m-tolyl)propanamido)cyclohexyl) phosphoramidate] | 28.5 | 311 (≈ 512 µM) | > 512 |  |
| Cc1cccc(C(CC(=O)NC2CCNCC2)c2cn(CC3CCCC3)c3ccccc23)c1.Cl (centres unmarked) [Compound 112, 3-(1-(cyclopentylmethyl)-1H-indol-3-yl)-N-(piperidin-4-yl)-3-(m-tolyl)propanamide hydrochloride salt] | 68 | 16 | 64 |  |
| Cc1cccc(C(CC(=O)N[C@H]2CC[C@H](N)CC2)c2cn(CC3CC3)c3ccccc23)c1.Cl (stereo partly drawn) [Compound 124, N-((1R,4R)-4-aminocyclohexyl)-3-(1-(cyclopropylmethyl)-1H-indol-3-yl)-3-(m-tolyl)propanamide hydrochloride salt] | 149 | 128 | 256 |  |
| Cl.N[C@H]1CC[C@H](NC(=O)CC(c2cccc(F)c2)c2cn(CC3CCCCC3)c3ccccc23)CC1 (stereo partly drawn) [Compound 137, N-((1R,4R)-4-aminocyclohexyl)-3-(1-(cyclohexylmethyl)-1H-indol-3-yl)-3-(3-fluorophenyl) propanamide hydrochloride salt] | 43 | 8 | 32 |  |
| Cc1cccc(C(CCNC2CCNCC2)c2cn(CC3CCOCC3)c3ccccc23)c1 (centres unmarked) [Compound 292, N-(3-(1-((tetrahydro-2H-pyran-4-yl)methyl)-1H-indol-3-yl)-3-(m-tolyl)propyl)piperidin-4-amine hydrochloride salt] | 130 | 33 | 66 |  |
| CCOP(=O)(NCCC1CCN(C(=O)CC(c2cccc(C)c2)c2cn(CC3CCCCC3)c3ccccc23)CC1)OCC (centres unmarked) [Compound 227, diethyl (2-(1-(3-(1-(cyclohexylmethyl)-1H-indol-3-yl)-3-(m-tolyl)propanoyl)piperidin-4-yl)ethyl)phosphoramidate] |  | 318 (≈ 511 µM) | > 512 |  |
